Experimental data taken from patent US10654837B2, “Sulphamoylaryl derivatives and use thereof as medicaments for the treatment of liver fibrosis” (Janssen Pharmaceutica NV, priority 2017, dated 2020).

Each compound was assayed against T1, 5HTR2B (Homo sapiens, UniProt P41595) (assay: 5HTR2B antagonist activity, calcium mobilization assay in human Maverick/293 cells (serotonin as agonist)). Conditions: intracellular calcium, emission 525 nm, read-out: Ca assay IC50.
T1 construct: host or cells: human Maverick/293 cells
Format: cell-based
In short: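 Calcium mobilization read over 80 s at ex 485/em 525 nm after serotonin addition. Before that, 2 h serum-free starvation, 50 min dye loading at 37 °C, and 15-30 min antagonist exposure. IC50 from sigmoidal fit of peak % inhibition.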

T1 sequence (P41595 whole entry): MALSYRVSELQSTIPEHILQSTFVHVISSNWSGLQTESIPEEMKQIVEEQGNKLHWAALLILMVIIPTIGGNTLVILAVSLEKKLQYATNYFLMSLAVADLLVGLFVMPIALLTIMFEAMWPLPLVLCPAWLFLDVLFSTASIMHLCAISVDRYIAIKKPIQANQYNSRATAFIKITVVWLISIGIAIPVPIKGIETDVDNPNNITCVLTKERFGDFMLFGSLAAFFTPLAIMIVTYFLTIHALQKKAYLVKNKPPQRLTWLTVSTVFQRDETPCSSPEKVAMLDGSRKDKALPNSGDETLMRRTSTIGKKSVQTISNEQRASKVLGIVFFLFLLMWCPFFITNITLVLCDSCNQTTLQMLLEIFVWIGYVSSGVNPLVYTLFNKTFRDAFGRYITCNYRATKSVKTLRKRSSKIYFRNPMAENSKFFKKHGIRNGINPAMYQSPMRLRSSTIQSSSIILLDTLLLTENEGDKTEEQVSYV

| Structure (SMILES) | IC50 |
| --- | --- |
| COc1ccc(S(=O)(=O)N[C@H]2C[C@@H](O)C2)cc1C(=O)Nc1ccc(F)cc1Cl [Compound 144b, N-(2-chloro-4-fluorophenyl)-5-(N-((cis)-3-hydroxycyclobutyl)sulfamoyl)-2-methoxybenzamide] | 0.3 nM |
| COc1ccc(S(=O)(=O)N[C@H]2C[C@H](O)C2)cc1C(=O)Nc1ccc(F)cc1F [Compound 145a, N-(2,4-difluorophenyl)-5-(N-((trans)-3-hydroxycyclobutyl)sulfamoyl)-2-methoxybenzamide] | 2.5 nM |
| COc1ccc(S(=O)(=O)N[C@H]2C[C@@H](O)C2)cc1C(=O)Nc1ccc(F)cc1F [Compound 145b, N-(2,4-difluorophenyl)-5-(N-((cis)-3-hydroxycyclobutyl)sulfamoyl)-2-methoxybenzamide] | 1 nM |
| COc1ccc(S(=O)(=O)N[C@H]2C[C@H](O)C2)cc1C(=O)Nc1cc(F)ccc1Cl [Compound 146a, N-(2-chloro-5-fluorophenyl)-5-(N-((trans)-3-hydroxycyclobutyl)sulfamoyl)-2-methoxybenzamide] | 0.8 nM |
| COc1ccc(S(=O)(=O)N[C@H]2C[C@@H](O)C2)cc1C(=O)Nc1cc(F)ccc1Cl [Compound 146b, N-(2-chloro-5-fluorophenyl)-5-(N-((cis)-3-hydroxycyclobutyl)sulfamoyl)-2-methoxybenzamide] | 1 nM |
| COCCOC[C@H](C)NS(=O)(=O)c1ccc(OC)c(C(=O)Nc2ccc(F)cc2F)c1 [Compound 147a, (S)—N-(2,4-Difluorophenyl)-2-methoxy-5-(N-(1-(2-methoxyethoxy)propan-2-yl)sulfamoyl)benzamide] | 3.4 nM |
| COCCOC[C@@H](C)NS(=O)(=O)c1ccc(OC)c(C(=O)Nc2ccc(F)cc2F)c1 [Compound 147b, (R)—N-(2,4-Difluorophenyl)-2-methoxy-5-(N-(1-(2-methoxyethoxy)propan-2-yl)sulfamoyl)benzamide] | 2.1 nM |
| COc1ccc(S(N)(=O)=O)cc1C(=O)Nc1ccc(F)cc1F [Compound 148, N-(2,4-Difluorophenyl)-2-methoxy-5-sulfamoylbenzamide] | 161 nM |
| COc1ccc(S(=O)(=O)N[C@H]2CCOC2)cc1C(=O)Nc1ccccc1C(F)(F)F [Compound 149, (S)-2-Methoxy-5-(N-(tetrahydrofuran-3-yl)sulfamoyl)-N-(2-(trifluoromethyl)phenyl)benzamide] | 8.4 nM |
| COc1ccc(S(=O)(=O)N[C@H]2CCOC2)cc1C(=O)Nc1ccccc1OC(F)(F)F [Compound 150, (S)-2-Methoxy-5-(N-(tetrahydrofuran-3-yl)sulfamoyl)-N-(2-(trifluoromethoxy)phenyl)benzamide] | 9.9 nM |
| COc1ccc(S(=O)(=O)N[C@H]2CCOC2)cc1C(=O)Nc1ccccc1C1CC1 [Compound 151, (S)—N-(2-Cyclopropylphenyl)-2-methoxy-5-(N-(tetrahydrofuran-3-yl)sulfamoyl) benzamide] | 39 nM |
| COc1ccc(S(=O)(=O)N[C@H]2C[C@H](O)C2)cc1C(=O)Nc1ccccc1Cl [Compound 154] | 0.6 nM |
| COc1ccc(S(=O)(=O)N[C@H]2C[C@@H](O)C2)cc1C(=O)Nc1ccccc1Cl [Compound 155, N-(2-Chlorophenyl)-5-(N-((cis)-3-hydroxycyclobutyl)sulfamoyl)-2-methoxy benzamide] | 0.2 nM |
| COc1ccc(S(=O)(=O)N[C@H]2C[C@H](O)C2)cc1C(=O)Nc1ccc(F)cn1 [Compound 156] | 159 nM |
| COc1ccc(S(=O)(=O)N[C@H]2C[C@@H](O)C2)cc1C(=O)Nc1ccc(F)cn1 [Compound 157, N-(5-Fluoropyridin-2-yl)-5-(N-((cis)-3-hydroxycyclobutyl)sulfamoyl)-2-methoxybenzamide] | 53 nM |
| COc1ccc(S(=O)(=O)N[C@H]2CCOC2)cc1C(=O)Nc1ccc(F)cc1 [Compound 158, (S)—N-(4-Fluorophenyl)-2-methoxy-5-(N-(tetrahydrofuran-3-yl)sulfamoyl) benzamide] | 0.17 nM |
| COc1ccc(S(=O)(=O)N[C@H]2CCOC2)cc1C(=O)Nc1cccc(C)c1 [Compound 159] | 0.7 nM |
| COc1ccc(S(=O)(=O)N[C@H]2CCOC2)cc1C(=O)Nc1ccc(F)c(C(F)(F)F)c1 [Compound 160, (S)—N-(4-Fluoro-3-(trifluoromethyl)phenyl)-2-methoxy-5-(N-(tetrahydrofuran-3-yl)sulfamoyl)benzamide] | 4.6 nM |
| COc1ccc(S(=O)(=O)N[C@H]2CCOC2)cc1C(=O)Nc1cc(C)c(F)cn1 [Compound 161, (S)—N-(5-Fluoro-4-methylpyridin-2-yl)-2-methoxy-5-(N-(tetrahydrofuran-3-yl)sulfamoyl)benzamide] | 79 nM |
| COc1ccc(S(=O)(=O)N[C@H]2CCOC2)cc1C(=O)Nc1ccc(F)c(C2CC2)n1 [Compound 162, (S)—N-(6-Cyclopropyl-5-fluoropyridin-2-yl)-2-methoxy-5-(N-(tetrahydrofuran-3-yl)sulfamoyl)benzamide] | 0.5 nM |
| COc1ccc(S(=O)(=O)N[C@H]2CCOC2)cc1C(=O)Nc1ccccc1C [Compound 163, (S)-2-Methoxy-5-(N-(tetrahydrofuran-3-yl)sulfamoyl)-N-(o-tolyl)benzamide] | 0.9 nM |

| Structure (SMILES) | IC50 |
| --- | --- |
| COc1ccc(S(=O)(=O)N[C@H]2CCOC2)cc1C(=O)Nc1ccccc1C#N [Compound 164] | 1.1 nM |
| COc1ccc(S(=O)(=O)N[C@H]2CCOC2)cc1C(=O)Nc1ccncn1 [Compound 165, (S)-2-Methoxy-N-(pyrimidin-4-yl)-5-(N-(tetrahydrofuran-3-yl)sulfamoyl) benzamide] | 511 nM |
| COc1ccccc1NC(=O)c1cc(S(=O)(=O)N[C@H]2CCOC2)ccc1OC [Compound 166, (S)-2-Methoxy-N-(2-methoxyphenyl)-5-(N-(tetrahydrofuran-3-yl)sulfamoyl) benzamide] | 0.16 nM |
| COc1ccc(S(=O)(=O)N[C@H]2CCOC2)cc1C(=O)Nc1ccc(F)c(C(F)F)c1 [Compound 167, (S)—N-(3-(Difluoromethyl)-4-fluorophenyl)-2-methoxy-5-(N-(tetrahydrofuran-3-yl)sulfamoyl)benzamide] | 0.32 nM |
| COc1ccc(S(=O)(=O)NC2(C(F)(F)F)CC2)cc1C(=O)Nc1ccc(F)c(C)n1 [Compound 168, N-(5-fluoro-6-methylpyridin-2-yl)-2-methoxy-5-(N-(1-(trifluoromethyl)cyclopropyl)sulfamoyl)benzamide] | 3.9 nM |
| COc1ccc(S(=O)(=O)NC2CNC2)cc1C(=O)Nc1ccc(F)c(C)n1 [Compound 169, 5-(N-(Azetidin-3-yl)sulfamoyl)-N-(5-fluoro-6-methylpyridin-2-yl)-2-Methoxy benzamide] | 65 nM |
| COc1ccc(S(=O)(=O)NC2CN(C)C2)cc1C(=O)Nc1ccc(F)c(C)n1 [Compound 170, N-(5-Fluoro-6-methylpyridin-2-yl)-2-methoxy-5-(N-(1-methylazetidin-3-yl)sulfamoyl)benzamide] | 58 nM |
| COc1ccc(S(=O)(=O)N[C@H]2CCOC2)cc1C(=O)Nc1nc(C)c(F)c(Cl)n1 [Compound 171, (S)—N-(4-chloro-5-fluoro-6-methylpyrimidin-2-yl)-2-methoxy-5-(N-(tetrahydrofuran-3-yl)sulfamoyl)benzamide] | 106 nM |
| COc1ccc(S(=O)(=O)N[C@H]2CCOC2)cc1C(=O)Nc1ncc(F)c(C)n1 [Compound 172, (S)—N-(5-fluoro-4-methylpyrimidin-2-yl)-2-methoxy-5-(N-(tetrahydrofuran-3-yl)sulfamoyl)benzamide] | 33 nM |
| COc1ccc(S(=O)(=O)N[C@H]2C[C@@H](O)C2)cc1C(=O)Nc1ccc(F)c(C)c1F [Compound 173, N-(2,4-Difluoro-3-methylphenyl)-5-(N-((cis)-3-hydroxycyclobutyl)sulfamoyl)-2-methoxybenzamide] | 0.8 nM |
| COc1ccc(S(=O)(=O)N[C@H]2C[C@H](O)C2)cc1C(=O)Nc1ccc(F)c(C(F)F)n1 [Compound 174a, N-(6-(Difluoromethyl)-5-fluoropyridin-2-yl)-5-(N-((trans)-3-hydroxycyclobutyl)sulfamoyl)-2-methoxybenzamide] | 3.9 nM |
| COc1ccc(S(=O)(=O)N[C@H]2C[C@@H](O)C2)cc1C(=O)Nc1ccc(F)c(C(F)F)n1 [Compound 174b, N-(6-(Difluoromethyl)-5-fluoropyridin-2-yl)-5-(N-((cis)-3-hydroxycyclobutyl)sulfamoyl)-2-methoxybenzamide] | 1.7 nM |
| COc1ccc(S(=O)(=O)N[C@H]2CCNC2)cc1C(=O)Nc1ccc(F)c(C)n1 [Compound 175, (S)—N-(5-Fluoro-6-methylpyridin-2-yl)-2-methoxy-5-(N-(pyrrolidin-3-yl)sulfamoyl)benzamide] | 1.6 nM |
| COc1ccc(S(=O)(=O)N[C@H]2CCN(C)C2)cc1C(=O)Nc1ccc(F)c(C)n1 [Compound 176, (S)—N-(5-Fluoro-6-methylpyridin-2-yl)-2-methoxy-5-(N-(1-methylpyrrolidin-3-yl)sulfamoyl)benzamide] | 5 nM |
| COc1ccc(S(=O)(=O)N[C@@H]2CCNC2)cc1C(=O)Nc1ccc(F)c(C)n1 [Compound 177, (R)—N-(5-Fluoro-6-methylpyridin-2-yl)-2-methoxy-5-(N-(pyrrolidin-3-yl)sulfamoyl)benzamide] | 4.2 nM |
| COc1ccc(S(=O)(=O)N[C@H]2CCNC2)cc1C(=O)Nc1ccc(F)cc1 [Compound 178, (S)—N-(4-Fluorophenyl)-2-methoxy-5-(N-(pyrrolidin-3-yl)sulfamoyl)benzamide] | 0.3 nM |
| COc1ccc(S(=O)(=O)N[C@H]2CCNC2)cc1C(=O)Nc1ccccc1Cl [Compound 179, (S)—N-(2-Chlorophenyl)-2-methoxy-5-(N-(pyrrolidin-3-yl)sulfamoyl)benzamide] | 0.1 nM |
| COc1ccc(S(=O)(=O)N[C@@H]2CCNC2)cc1C(=O)Nc1ccc(F)cc1 [Compound 180, (R)—N-(4-Fluorophenyl)-2-methoxy-5-(N-(pyrrolidin-3-yl)sulfamoyl)benzamide] | 3.3 nM |
| COc1ccc(S(=O)(=O)N[C@@H]2CCNC2)cc1C(=O)Nc1ccc(F)c(C(F)F)c1 [Compound 181] | 4.5 nM |
| COc1ccc(S(=O)(=O)N[C@H]2CCNC2)cc1C(=O)Nc1ccc(F)cc1F [Compound 182] | 0.3 nM |
